Source: patent US20220362153A1, “COMPOSITIONS AND METHODS FOR PULMONARY SURFACTANT-BIOMIMETIC NANOPARTICLES” (priority 2019, published 2022)

Key:
[1] = tested on: gap junctions between AMs and AECs; experiment: Gap junction blockade in vivo; parameters: species or system mice; conditions: for effect on PS-GAMP adjuvanticity (IgG2c): i.p. prior to and during immunization
[2] = tested on: GZ89 H3N2 virus; parameters: species or system mice; conditions: mouse, in vivo
[3] = tested on: CA09 H1N1 virus
[4] = mouse, in vivo
[5] = tested on: immune mediators (Ifnb1, Gmcsf, Tnf, Ccl2, Ccl3, Ccl5, Cxcl10); conditions: mouse, in vivo
[6] = tested on: SH13 H7N9 virus; parameters: species or system mice; conditions: mouse, in vivo
[7] = tested on: CA09 H1N1 vaccine; assay type: in vivo, C57BL/6 mice; conditions: 20 μg, 2 weeks
[8] = i.p. inhibitor, i.n. SRB-nano4, 12 h

Molecule: CC1(C)[C@@H](OC(=O)CCC(=O)O)CC[C@]2(C)[C@H]3C(=O)C=C4[C@@H]5C[C@@](C)(C(=O)O)CC[C@]5(C)CC[C@@]4(C)[C@]3(C)CC[C@@H]12 [CBX, carbenoxolone]
- SRB uptake by AMs [1, 8]: did not affect SRB uptake by AMs
- entry of SRB into AECs [1, 8]: blocked
- effect on PS-GAMP adjuvanticity (IgG2c) [1]: blunted substantially
- Ifnb1 transcription in AMs ([1]; lungs receiving PS-GAMP, 12 h): increasing Ifnb1 transcription in AMs
- transcription of Ifnb1 and Gmcsf in AECs ([1]; lungs receiving PS-GAMP, 12 h): greatly diminished
- reduction of recruitment of CD11b+ DCs ([1]; vaccine + PS-GAMP, lung, 24 h): 50%

Molecule: CCCCCCCCc1ccc(CCC(N)(CO)CO)cc1 [FTY720]
- effect on cross-protection elicited by vaccine/PS-GAMP [2]: not compromised

Molecule: Cc1ccc(Cl)c(Nc2ccccc2C(=O)O)c1Cl [meclofenamate]
- effect on PS-GAMP adjuvanticity (IgG2c) [1]: blunted substantially

Molecule: CCOC(=O)C1=C[C@@H](OC(CC)CC)[C@H](NC(C)=O)[C@@H](N)C1 [oseltamivir]
- control of CA09 H1N1 viral infection ([3]; unimmunized mice, 20 mg/kg/day): effectively control CA09H1N1

Molecule: CC(=O)c1ccc2c(c1)[C@H](NC(=O)c1ccc(F)c(Cl)c1)[C@H](O)C(C)(C)O2 [tonabersat]
- effect on PS-GAMP adjuvanticity (IgG2c) [1]: blunted substantially

Molecule: cholera toxin [CT]
- histology of lungs, nasal tissue, and brains [4]: massive inflammatory cell infiltrates in the lung
- cytokine production in the brain [5]: measurable cytokine mRNA expression in the brains of some mice

Molecule: poly IC
- heterosubtypic protection from SH13 H7N9 challenge [6]: failed to provoke significant heterosubtypic protection
- body weight loss after 10×LD50 CA09 H1N1 challenge ([3]; mouse, in vivo): severe body weight loss
- protection against 10×LD50 CA09 H1N1 viral challenge ([3]; mouse, in vivo): 33%
- lower efficacy in augmenting BALF IgA (vs PS-GAMP) [7]: 30 fold
- lower efficacy in augmenting HAI titers (vs PS-GAMP) [7]: fivefold
- lower efficacy in augmenting serum IgG (vs PS-GAMP) [7]: 100 fold
